From patent US20230140216A1, “COMBINATION THERAPY FOR TREATING MPS1” (GAIN THERAPEUTICS SA, priority 2020, published 2023)

Target: T1, Recombinant human α-L-iduronidase protein (Homo sapiens, UniProt P35475)
T1 construct: purchased R&D
T1 sequence (P35475 28-653): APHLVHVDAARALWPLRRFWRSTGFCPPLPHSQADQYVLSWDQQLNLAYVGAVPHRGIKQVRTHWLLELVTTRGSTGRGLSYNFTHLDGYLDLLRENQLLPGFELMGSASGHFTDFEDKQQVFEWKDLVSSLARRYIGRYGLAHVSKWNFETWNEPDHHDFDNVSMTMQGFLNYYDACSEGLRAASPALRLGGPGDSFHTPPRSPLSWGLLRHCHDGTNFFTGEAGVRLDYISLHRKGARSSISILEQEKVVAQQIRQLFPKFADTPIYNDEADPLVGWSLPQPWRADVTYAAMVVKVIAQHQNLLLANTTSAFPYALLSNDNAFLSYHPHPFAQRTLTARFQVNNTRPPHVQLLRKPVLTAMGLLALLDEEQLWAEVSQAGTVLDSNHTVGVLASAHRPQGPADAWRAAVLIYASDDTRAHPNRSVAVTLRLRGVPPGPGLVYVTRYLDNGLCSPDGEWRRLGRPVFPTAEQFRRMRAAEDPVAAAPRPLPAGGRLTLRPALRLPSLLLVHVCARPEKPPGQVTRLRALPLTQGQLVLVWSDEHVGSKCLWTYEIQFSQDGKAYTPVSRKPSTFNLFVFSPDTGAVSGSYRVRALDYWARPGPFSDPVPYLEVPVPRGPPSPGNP
Assay: Differential scanning fluorimetry (DSF) thermal stabilization;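 note: Classes count stabilization of α-L-iduronidase despite the GALC label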
Type: binding
Details: ΔTm class
Description: The capacity of Compounds of the Disclosure to stabilize α-L-iduronidase was assessed by differential scanning fluorimetry technique. The thermal denaturation of purified human native enzyme was monitored in the presence of the extrinsic fluorescent probe SYPRO Orange (Sigma-Aldrich, St. Louis, MO). The tested compounds were dissolved in 100% DMSO and diluted into the protein buffer to achieve final concentrations of 1% DMSO.
Recombinant human α-L-iduronidase protein (purchased from R&D) 12.5 µL of 1.5 µM in 100 mM Hepes 20 mM MgCl2 pH 7 (protein final concentration 0.75 µM) with Sypro Orange 10X and 12.5 µl of the different compound solutions were dispensed into 96-well PCR-plates. The intensity of SYPRO Orange fluorescence after a systematic increase of temperature was monitored in the Roche LightCycler® 480 II device (Roche Diagnostics).
The capacity to stabilize α-L-iduronidase is denoted as follows: • ΔTm GALC > 1 is shown as A; • ΔTm GALC between 0.5 and 1 is shown as B; • ΔTm GALC between 0.1 and 0.5 is shown as C; and • ΔTm GALC less than 0.1 is shown as D.

[1] = commercially available Examples 8-37

## CN(CC(=O)Nc1ccc(Cl)c(Cl)c1)Cc1nc2c(cnn2C)c(=O)[nH]1 [Example 30, N-(3,4-dichlorophenyl)-2-(methyl((1-methyl-4-oxo-4,5-dihydro-1H-pyrazolo[3,4-d]pyrimidin-6-yl)methyl)amino)acetamide]
[1]
  DSF Activity range: B (ΔTm GALC between 0.5 and 1 is shown as B)

## Cc1ccc(NC(=O)CN(C)Cc2nc3c(cnn3C)c(=O)[nH]2)cc1 [Example 31, 2-(methyl((1-methyl-4-oxo-4,5-dihydro-1H-pyrazolo[3,4-d]pyrimidin-6-yl)methyl)amino)-N-(p-tolyl)acetamide]
[1]
  DSF Activity range: C (ΔTm GALC between 0.1 and 0.5 is shown as C)

## CN(CC(=O)Nc1cccc(F)c1)Cc1nc2c(cnn2C)c(=O)[nH]1 [Example 32, N-(3-fluorophenyl)-2-(methyl((1-methyl-4-oxo-4,5-dihydro-1H-pyrazolo[3,4-d]pyrimidin-6-yl)methyl)amino)acetamide]
[1]
  DSF Activity range: D (ΔTm GALC less than 0.1 is shown as D)

## CN(CC(=O)Nc1ccccc1)Cc1nc2c(cnn2C)c(=O)[nH]1 [Example 33, 2-(methyl((1-methyl-4-oxo-4,5-dihydro-1H-pyrazolo[3,4-d]pyrimidin-6-yl)methyl)amino)-N-phenylacetamide]
[1]
  DSF Activity range: C (ΔTm GALC between 0.1 and 0.5 is shown as C)

## COCCNC(=O)CN(C)Cc1nc2c(cnn2C)c(=O)[nH]1 [Example 34, N-(2-methoxyethyl)-2-(methyl((1-methyl-4-oxo-4,5-dihydro-1H-pyrazolo[3,4-d]pyrimidin-6-yl)methyl)amino)acetamide]
[1]
  DSF Activity range: D (ΔTm GALC less than 0.1 is shown as D)

## CN(CC(=O)N1CCCC1)Cc1nc2c(cnn2C)c(=O)[nH]1 [Example 35, 1-methyl-6-((methyl(2-oxo-2-(pyrrolidin-1-yl)ethyl)amino)methyl)-1,5-dihydro-4H-pyrazolo[3,4-d]pyrimidin-4-one]
[1]
  DSF Activity range: B (ΔTm GALC between 0.5 and 1 is shown as B)

## CN(CC(=O)N(C)C)Cc1nc2c(cnn2C)c(=O)[nH]1 [Example 36, N,N-dimethyl-2-(methyl((1-methyl-4-oxo-4,5-dihydro-1H-pyrazolo[3,4-d]pyrimidin-6-yl)methyl)amino)acetamide]
[1]
  DSF Activity range: B (ΔTm GALC between 0.5 and 1 is shown as B)

## CN(CC(=O)N(C)C1CCCCC1)Cc1nc2c(cnn2C)c(=O)[nH]1 [Example 37, N-cyclohexyl-N-methyl-2-(methyl((1-methyl-4-oxo-4,5-dihydro-1H-pyrazolo[3,4-d]pyrimidin-6-yl)methyl)amino)acetamide]
[1]
  DSF Activity range: B (ΔTm GALC between 0.5 and 1 is shown as B)

## Cc1csc2c(=O)[nH]c(CN(C)CC(=O)N3Cc4ccccc4C3)nc12 [Example 38]
Synthetized Examples 38-94
  DSF Activity range: B (ΔTm GALC between 0.5 and 1 is shown as B)

## Cc1csc2c(=O)[nH]c(CN(C)CC(=O)N(C)c3ccccc3Cl)nc12 [Example 41]
Synthetized Examples 38-94
  DSF Activity range: C (ΔTm GALC between 0.1 and 0.5 is shown as C)

## CCN(CC(=O)N(C)c1ccccc1Cl)Cc1nc2c(C)csc2c(=O)[nH]1 [Example 42]
Synthetized Examples 38-94
  DSF Activity range: C (ΔTm GALC between 0.1 and 0.5 is shown as C)

## Cc1csc2c(=O)[nH]c(CN(CC(=O)N(C)c3ccccc3Cl)C3CC3)nc12 [Example 43]
Synthetized Examples 38-94
  DSF Activity range: D (ΔTm GALC less than 0.1 is shown as D)

## CCCN(CC(=O)N(C)c1ccccc1Cl)Cc1nc2c(C)csc2c(=O)[nH]1 [Example 44]
Synthetized Examples 38-94
  DSF Activity range: B (ΔTm GALC between 0.5 and 1 is shown as B)

## Cc1cc2nc(CN(C)CC(=O)N(C)c3ccccc3Cl)[nH]c(=O)c2s1 [Example 45]
Synthetized Examples 38-94
  DSF Activity range: B (ΔTm GALC between 0.5 and 1 is shown as B)

## CCN(CC(=O)N(C)c1ccccc1Cl)Cc1nc2cc(C)sc2c(=O)[nH]1 [Example 46]
Synthetized Examples 38-94
  DSF Activity range: B (ΔTm GALC between 0.5 and 1 is shown as B)

## Cc1cc2nc(CN(CC(=O)N(C)c3ccccc3Cl)C3CC3)[nH]c(=O)c2s1 [Example 47]
Synthetized Examples 38-94
  DSF Activity range: D (ΔTm GALC less than 0.1 is shown as D)

## Cc1csc(N(C)C(=O)CN(C)Cc2nc3c(C)csc3c(=O)[nH]2)n1 [Example 48, N-methyl-2-(methyl((7-methyl-4-oxo-3,4-dihydrothieno[3,2-d]pyrimidin-2-yl)methyl)amino)-N-(4-methylthiazol-2-yl)acetamide]
Synthetized Examples 38-94
  DSF Activity range: C (ΔTm GALC between 0.1 and 0.5 is shown as C)

## CCN(CC(=O)N(C)c1c(Cl)cccc1Cl)Cc1nc2c(C)csc2c(=O)[nH]1 [Example 49, N-(2,6-dichlorophenyl)-2-(ethyl((7-methyl-4-oxo-3,4-dihydrothieno[3,2-d]pyrimidin-2-yl)methyl)amino)-N-methylacetamide]
Synthetized Examples 38-94
  DSF Activity range: C (ΔTm GALC between 0.1 and 0.5 is shown as C)

## Cc1csc2c(=O)[nH]c(CN(C)CC(=O)N(C)c3cccc(F)c3)nc12 [Example 50]
Synthetized Examples 38-94
  DSF Activity range: B (ΔTm GALC between 0.5 and 1 is shown as B)

## Cc1cc2nc(CN(C)CC(=O)N(C)c3cccc(F)c3)[nH]c(=O)c2s1 [Example 51]
Synthetized Examples 38-94
  DSF Activity range: C (ΔTm GALC between 0.1 and 0.5 is shown as C)

## Cc1cc2nc(CN(C)CC(=O)N3CCc4ccccc43)[nH]c(=O)c2s1 [Example 52]
Synthetized Examples 38-94
  DSF Activity range: B (ΔTm GALC between 0.5 and 1 is shown as B)

## Cc1cc2nc(CN(C)CC(=O)N3Cc4ccccc4C3)[nH]c(=O)c2s1 [Example 53]
Synthetized Examples 38-94
  DSF Activity range: B (ΔTm GALC between 0.5 and 1 is shown as B)

## Cc1cc2nc(CN(C)CC(=O)N(C)c3ccc(Cl)c(Cl)c3)[nH]c(=O)c2s1 [Example 55, N-(3,4-dichlorophenyl)-N-methyl-2-(methyl((6-methyl-4-oxo-3,4-dihydrothieno[3,2-d]pyrimidin-2-yl)methyl)amino)acetamide]
Synthetized Examples 38-94
  DSF Activity range: C (ΔTm GALC between 0.1 and 0.5 is shown as C)

## CN(CC(=O)N1Cc2ccccc2C1)Cc1nc2ccc(F)cc2c(=O)[nH]1 [Example 56, 6-fluoro-2-(((2-(isoindolin-2-yl)-2-oxoethyl)(methyl)amino)methyl)quinazolin-4(3H)-one]
Synthetized Examples 38-94
  DSF Activity range: A (ΔTm GALC > 1 is shown as A)

## CN(CC(=O)N1CCc2ccccc21)Cc1nc2ccc(F)cc2c(=O)[nH]1 [Example 57, 6-fluoro-2-(((2-(indolin-1-yl)-2-oxoethyl)(methyl)amino)methyl)quinazolin-4(3H)-one]
Synthetized Examples 38-94
  DSF Activity range: B (ΔTm GALC between 0.5 and 1 is shown as B)

## CN(CC(=O)N(C)c1ccc(Cl)c(Cl)c1)Cc1nc2ccc(F)cc2c(=O)[nH]1 [Example 58, N-(3,4-dichlorophenyl)-2-(((6-fluoro-4-oxo-3,4-dihydroquinazolin-2-yl)methyl)(methyl)amino)-N-methylacetamide]
Synthetized Examples 38-94
  DSF Activity range: B (ΔTm GALC between 0.5 and 1 is shown as B)

## CN(CC(=O)N(C)c1ccccc1Cl)Cc1nc2ccc(F)cc2c(=O)[nH]1 [Example 59]
Synthetized Examples 38-94
  DSF Activity range: B (ΔTm GALC between 0.5 and 1 is shown as B)

## CCN(CC(=O)N(C)c1ccccc1Cl)Cc1nc2ccc(F)cc2c(=O)[nH]1 [Example 60]
Synthetized Examples 38-94
  DSF Activity range: B (ΔTm GALC between 0.5 and 1 is shown as B)

## CN(C(=O)CN(Cc1nc2ccc(F)cc2c(=O)[nH]1)C1CC1)c1ccccc1Cl [Example 61]
Synthetized Examples 38-94
  DSF Activity range: D (ΔTm GALC less than 0.1 is shown as D)

## CCCN(CC(=O)N(C)c1ccccc1Cl)Cc1nc2ccc(F)cc2c(=O)[nH]1 [Example 62]
Synthetized Examples 38-94
  DSF Activity range: B (ΔTm GALC between 0.5 and 1 is shown as B)

## CN(CC(=O)N(C)c1ccccc1Cl)Cc1nc2cc(F)ccc2c(=O)[nH]1 [Example 63]
Synthetized Examples 38-94
  DSF Activity range: B (ΔTm GALC between 0.5 and 1 is shown as B)

## CCN(CC(=O)N(C)c1ccccc1Cl)Cc1nc2cc(F)ccc2c(=O)[nH]1.Cl [Example 64]
Synthetized Examples 38-94
  DSF Activity range: B (ΔTm GALC between 0.5 and 1 is shown as B)

## CN(C(=O)CN(Cc1nc2cc(F)ccc2c(=O)[nH]1)C1CC1)c1ccccc1Cl [Example 65]
Synthetized Examples 38-94
  DSF Activity range: D (ΔTm GALC less than 0.1 is shown as D)

## Cc1ccc2nc(CN(C)CC(=O)N(C)c3ccccc3Cl)[nH]c(=O)c2c1 [Example 66]
Synthetized Examples 38-94
  DSF Activity range: B (ΔTm GALC between 0.5 and 1 is shown as B)

## CCN(CC(=O)N(C)c1nc(C)cs1)Cc1nc2ccc(F)cc2c(=O)[nH]1 [Example 67, 2-(ethyl((6-fluoro-4-oxo-3,4-dihydroquinazolin-2-yl)methyl)amino)-N-methyl-N-(4-methylthiazol-2-yl)acetamide]
Synthetized Examples 38-94
  DSF Activity range: B (ΔTm GALC between 0.5 and 1 is shown as B)

## Cc1csc(N(C)C(=O)CN(C)Cc2nc3cc(F)ccc3c(=O)[nH]2)n1 [Example 68]
Synthetized Examples 38-94
  DSF Activity range: C (ΔTm GALC between 0.1 and 0.5 is shown as C)
